Data as given in ChEMBL document CHEMBL4190168 (Medchemcomm, 2016).
The source made the active and inactive calls. The calls are words filed in the database; no cut-off is given here.

What was measured:
EA.hy 926 [1] = test: Antiangiogenic activity in human EAhy926 cells assessed as inhibition of VEGF-induced capillary tube formation after 24 hrs by matrigel based phase contrast microscopic analysis; format: functional, cell-based
Chorioallantoic membrane = test: Antiangiogenic activity in chicken fertilized egg chorioallantoic membrane at 30 uM after 48 hrs by microscopic analysis; format: functional, tissue-based; settings: Gallus gallus
EA.hy 926 [2] = test: Anti-migratory activity against human EAhy926 cells assessed as inhibition of VEGF-induced cell migration towards wound area after 24 hrs by phase contrast microscopic analysis; format: functional, cell-based
[3] = Solubility of the compound in water; format: physicochemical

Row | SMILES | solubility [3] [mg/mL] | other results
1 | COc1ccc(-c2nc(CNCCCCCNCc3cc4c5ccccc5n(C)c4c(-c4ccc(OC)cc4)n3)cc3c4ccccc4n(C)c23)cc1 | – | inhibition (EA.hy 926 [1]): Dose-dependent effect; Activity (Chorioallantoic membrane): Active; inhibition (EA.hy 926 [2]): Dose-dependent effect
2 | COc1cc(-c2nc(CNCCCCCCNCc3cc4c5ccccc5n(CCCc5ccccc5)c4c(-c4cc(OC)c(OC)c(OC)c4)n3)cc3c4ccccc4n(CCCc4ccccc4)c23)cc(OC)c1OC.Cl | > 10 | –
3 | Cc1nc(CNCCCNCc2cc3c4ccccc4n(CCCc4ccccc4)c3c(C)n2)cc2c3ccccc3n(CCCc3ccccc3)c12.Cl | > 10 | –
4 | Cc1nc(CNCCCCNCc2cc3c4ccccc4n(Cc4ccccc4)c3c(C)n2)cc2c3ccccc3n(Cc3ccccc3)c12.Cl | > 10 | –
5 | CCCCn1c2ccccc2c2cc(CNCCCCNCc3cc4c5ccccc5n(CCCC)c4c(C)n3)nc(C)c21.Cl | > 10 | –
6 | Cc1nc(CNCCCCCCNCc2cc3c4ccccc4n(C)c3c(C)n2)cc2c3ccccc3n(C)c12.Cl | > 10 | –
7 | Cc1nc(CNCCCNCc2cc3c4ccccc4n(CC(C)C)c3c(C)n2)cc2c3ccccc3n(CC(C)C)c12.Cl | > 10 | –
8 | COc1ccc(-c2nc(CNCCCCCNCc3cc4c5ccccc5n(C)c4c(-c4ccc(OC)cc4)n3)cc3c4ccccc4n(C)c23)cc1.Cl | > 10 | –
